Results on one compound are retold here after ChEMBL document CHEMBL4190187, “Discovery of pyrazolopyrimidine derivatives as novel inhibitors of ataxia telangiectasia and rad3 related protein (ATR)” (Bioorg Med Chem Lett, 2017).

The inhibition is the relative decrease from the control value, in per cent.

For data set [1], the target named is Ribosomal protein S6 kinase alpha-5 (Homo sapiens) (UniProt O75582). In words: Inhibition of recombinant human MSK1 (2 to end residues) at 1 uM using GRPRTSSFAEGKK as substrate after 40 mins in presence of [gamma-33P]ATP by scintillation counting method.
Chain of Ribosomal protein S6 kinase alpha-5 (Homo sapiens) (O75582 whole entry, looked up): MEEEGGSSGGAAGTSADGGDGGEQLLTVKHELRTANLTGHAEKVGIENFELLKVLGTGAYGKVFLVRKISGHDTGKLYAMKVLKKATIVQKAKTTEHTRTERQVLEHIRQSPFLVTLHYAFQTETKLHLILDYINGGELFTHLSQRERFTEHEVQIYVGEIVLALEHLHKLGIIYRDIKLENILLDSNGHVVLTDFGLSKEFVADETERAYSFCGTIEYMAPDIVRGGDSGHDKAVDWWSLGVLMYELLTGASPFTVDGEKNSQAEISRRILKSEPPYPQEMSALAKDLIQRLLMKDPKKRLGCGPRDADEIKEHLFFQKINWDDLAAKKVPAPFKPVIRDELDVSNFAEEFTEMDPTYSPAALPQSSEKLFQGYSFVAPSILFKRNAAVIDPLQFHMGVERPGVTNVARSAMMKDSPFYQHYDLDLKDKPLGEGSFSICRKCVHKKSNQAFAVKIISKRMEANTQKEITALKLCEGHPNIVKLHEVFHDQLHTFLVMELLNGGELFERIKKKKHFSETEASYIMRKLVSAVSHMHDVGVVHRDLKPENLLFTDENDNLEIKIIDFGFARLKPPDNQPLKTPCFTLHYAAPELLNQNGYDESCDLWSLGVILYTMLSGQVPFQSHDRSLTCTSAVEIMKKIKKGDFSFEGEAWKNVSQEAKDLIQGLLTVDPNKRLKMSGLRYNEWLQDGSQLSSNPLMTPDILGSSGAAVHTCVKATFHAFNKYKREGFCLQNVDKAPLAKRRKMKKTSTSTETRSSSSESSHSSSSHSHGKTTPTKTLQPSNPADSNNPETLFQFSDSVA
Data set [2] has as its system Epidermal growth factor receptor (Homo sapiens), P00533 [L858R,T790M]. In words: Inhibition of recombinant human EGFR T790M/L858R double mutant (696 to end residues) at 1 uM using GGMEDIYFEFMGGKKK as substrate after 40 mins in presence of [gamma-33P]ATP by scintillation counting method.
For data set [3], the target named is Tyrosine-protein kinase ITK/TSK (Homo sapiens) (UniProt Q08881). Nature of the data set: Inhibition of recombinant human ITK (352 to 617 residues) at 1 uM using myelin basic protein as substrate after 40 mins in presence of [gamma-33P]ATP by scintillation counting method.
Data set [4] addresses Serine/threonine-protein kinase Nek9 (Homo sapiens) (UniProt Q8TD19). Nature of the data set: Inhibition of recombinant human NEK9 (1 to 324 residues) at 1 uM using myelin basic protein as substrate after 40 mins in presence of [gamma-33P]ATP by scintillation counting method.
The target in data set [5] is Death-associated protein kinase 1 (Homo sapiens) (UniProt P53355). In words: Inhibition of recombinant human DAPK1 (1 to 296 residues) at 1 uM using KKLNRTLSFAEPG as substrate after 40 mins in presence of [gamma-33P]ATP by scintillation counting method.
Data set [6] relates to Tyrosine-protein kinase BTK (Homo sapiens), Q06187 [R28H]. In words: Inhibition of recombinant full-length human BTK R28H mutant at 1 uM using LSNLYHQGKFLQTFCGSPLYRRR as substrate after 40 mins in presence of [gamma-33P]ATP by scintillation counting method.
Chain of Tyrosine-protein kinase BTK (Homo sapiens), Q06187 [R28H] (Q06187 whole entry R28H, the tested form may be a part): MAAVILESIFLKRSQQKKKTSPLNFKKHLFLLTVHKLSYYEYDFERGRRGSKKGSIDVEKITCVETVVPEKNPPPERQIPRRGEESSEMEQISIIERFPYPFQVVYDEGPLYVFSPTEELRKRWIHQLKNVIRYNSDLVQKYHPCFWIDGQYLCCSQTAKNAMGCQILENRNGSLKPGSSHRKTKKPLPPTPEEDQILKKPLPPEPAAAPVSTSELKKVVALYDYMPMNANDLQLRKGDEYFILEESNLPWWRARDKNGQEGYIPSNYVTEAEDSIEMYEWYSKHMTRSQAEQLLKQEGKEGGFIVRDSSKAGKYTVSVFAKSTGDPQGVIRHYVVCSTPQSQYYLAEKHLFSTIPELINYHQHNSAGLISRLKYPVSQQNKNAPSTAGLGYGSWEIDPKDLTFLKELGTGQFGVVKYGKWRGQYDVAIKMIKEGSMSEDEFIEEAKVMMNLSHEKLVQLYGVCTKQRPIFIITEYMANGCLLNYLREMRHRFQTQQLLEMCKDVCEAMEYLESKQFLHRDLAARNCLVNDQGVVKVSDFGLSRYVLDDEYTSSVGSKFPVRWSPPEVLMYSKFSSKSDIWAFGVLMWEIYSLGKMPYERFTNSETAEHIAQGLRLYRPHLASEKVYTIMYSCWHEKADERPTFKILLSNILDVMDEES
Data set [7] has as its target Serine/threonine-protein kinase TAO3 (Homo sapiens) (UniProt Q9H2K8). Nature of the data set: Inhibition of recombinant human TAO3 (1 to 411 residues) at 1 uM using myelin basic protein as substrate after 40 mins in presence of [gamma-33P]ATP by scintillation counting method.
Data set [8] has as its target Beta-adrenergic receptor kinase 1 (Homo sapiens) (UniProt P25098). In words: Inhibition of recombinant full-length human GRK2 at 1 uM using casein as substrate after 40 mins in presence of [gamma-33P]ATP by scintillation counting method.
Data set [9] has as its system Mast/stem cell growth factor receptor Kit (Homo sapiens), P10721 [V654A]. Nature of the data set: Inhibition of recombinant human cKit V654A mutant (544 to end residues) at 1 uM using GGMEDIYFEFMGGKKK as substrate after 40 mins in presence of [gamma-33P]ATP by scintillation counting method.
Data set [10] in a line: Metabolic stability in mouse liver microsomes assessed as compound remaining at 1 uM in presence of NADPH as cofactor measured after 30 mins by LC-MS/MS method. Type of data set: ADME, microsome. Conditions: read-out: Stability. A general note: Microsomes from liver hold many membrane-bound enzymes, among them those of drug oxidation.
Data set [11] has as its target Activin receptor type-2A (Homo sapiens) (UniProt P27037). Nature of the data set: Inhibition of recombinant human ACTR2 (162 to end residues) at 1 uM using casein as substrate after 120 mins in presence of [gamma-33P]ATP by scintillation counting method.
The target of data set [12] is Serine/threonine-protein kinase ULK1 (Homo sapiens) (UniProt O75385). In words: Inhibition of recombinant human ULK1 (1 to 314 residues) at 1 uM using casein as substrate after 40 mins in presence of [gamma-33P]ATP by scintillation counting method.
Data set [13] has as its system PI3-kinase p110-alpha/p85-alpha (Homo sapiens), P27986+P42336 [H1047R]. Nature of the data set: Inhibition of recombinant full-length human p110a H1047R mutant/p85a at 1 uM using phosphatidylinositol 4,5-bisphosphate as substrate after 40 mins in presence of [gamma-33P]ATP by scintillation counting method. Type of data set: protein-complex assay.
Data set [14] concerns the target Homeodomain-interacting protein kinase 3 (Homo sapiens) (UniProt Q9H422). In words: Inhibition of recombinant human HIPK3 (161 to 562 residues) at 1 uM using myelin basic protein as substrate after 40 mins in presence of [gamma-33P]ATP by scintillation counting method.
Data set [15] addresses Ephrin type-A receptor 5 (Homo sapiens) (UniProt P54756). In words: Inhibition of recombinant human EPHA5 (655 to 956 residues) at 1 uM using poly(Glu,Tyr) 4:1 as substrate after 40 mins in presence of [gamma-33P]ATP by scintillation counting method.
The target in data set [16] is MAP kinase-interacting serine/threonine-protein kinase 2 (Homo sapiens) (UniProt Q9HBH9). In words: Inhibition of recombinant full-length human Mnk2 at 1 uM using myelin basic protein as substrate after 40 mins in presence of [gamma-33P]ATP by scintillation counting method.
Data set [17] addresses Homeodomain-interacting protein kinase 4 (Homo sapiens) (UniProt Q8NE63). In words: Inhibition of recombinant full-length human HIPK4 at 1 uM using RRRFRPASPLRGPPK as substrate after 40 mins in presence of [gamma-33P]ATP by scintillation counting method.
The target in data set [18] is Serine/threonine-protein kinase pim-3 (Homo sapiens) (UniProt Q86V86). In words: Inhibition of recombinant human PIM3 (2 to end residues) at 1 uM using RSRHSSYPAGT as substrate after 40 mins in presence of [gamma-33P]ATP by scintillation counting method.
Data set [19] deals with Dual specificity tyrosine-phosphorylation-regulated kinase 1B (Homo sapiens) (UniProt Q9Y463). Nature of the data set: Inhibition of recombinant full-length human DYRK1B at 1 uM using RRRFRPASPLRGPPK as substrate after 40 mins in presence of [gamma-33P]ATP by scintillation counting method.
Data set [20] addresses Serine/threonine-protein kinase 32B (Homo sapiens) (UniProt Q9NY57). In words: Inhibition of recombinant full-length human STK32B at 1 uM using casein as substrate after 120 mins in presence of [gamma-33P]ATP by scintillation counting method.
In data set [21] the test system is Serine/threonine-protein kinase Chk2 (Homo sapiens), O96017 [R145W]. In words: Inhibition of recombinant human CHK2 R145W mutant (5 to end residues) at 1 uM using KKKVSRSGLYRSPSMPENLNRPR as substrate after 40 mins in presence of [gamma-33P]ATP by scintillation counting method.
Data set [22] addresses Serine/threonine-protein kinase pim-1 (Homo sapiens) (UniProt P11309). Nature of the data set: Inhibition of recombinant full-length human PIM1 at 1 uM using KKRNRTLTV as substrate after 40 mins in presence of [gamma-33P]ATP by scintillation counting method.
The subject of data set [23] is PI3-kinase p110-alpha/p85-alpha (Homo sapiens), P27986+P42336 [E545K]. Nature of the data set: Inhibition of recombinant full-length human p110a E545K mutant/p85a at 1 uM using phosphatidylinositol 4,5-bisphosphate as substrate after 40 mins in presence of [gamma-33P]ATP by scintillation counting method. The class given is protein-complex assay.
For data set [24], the target named is Serine/threonine-protein kinase 10 (Homo sapiens) (UniProt O94804). Nature of the data set: Inhibition of recombinant human LOK (1 to 348 residues) at 1 uM using RLGRDKYKTLRQIRQ as substrate after 40 mins in presence of [gamma-33P]ATP by scintillation counting method.

Chain of Ephrin type-A receptor 5 (Homo sapiens) (P54756 whole entry, the tested form may be a part): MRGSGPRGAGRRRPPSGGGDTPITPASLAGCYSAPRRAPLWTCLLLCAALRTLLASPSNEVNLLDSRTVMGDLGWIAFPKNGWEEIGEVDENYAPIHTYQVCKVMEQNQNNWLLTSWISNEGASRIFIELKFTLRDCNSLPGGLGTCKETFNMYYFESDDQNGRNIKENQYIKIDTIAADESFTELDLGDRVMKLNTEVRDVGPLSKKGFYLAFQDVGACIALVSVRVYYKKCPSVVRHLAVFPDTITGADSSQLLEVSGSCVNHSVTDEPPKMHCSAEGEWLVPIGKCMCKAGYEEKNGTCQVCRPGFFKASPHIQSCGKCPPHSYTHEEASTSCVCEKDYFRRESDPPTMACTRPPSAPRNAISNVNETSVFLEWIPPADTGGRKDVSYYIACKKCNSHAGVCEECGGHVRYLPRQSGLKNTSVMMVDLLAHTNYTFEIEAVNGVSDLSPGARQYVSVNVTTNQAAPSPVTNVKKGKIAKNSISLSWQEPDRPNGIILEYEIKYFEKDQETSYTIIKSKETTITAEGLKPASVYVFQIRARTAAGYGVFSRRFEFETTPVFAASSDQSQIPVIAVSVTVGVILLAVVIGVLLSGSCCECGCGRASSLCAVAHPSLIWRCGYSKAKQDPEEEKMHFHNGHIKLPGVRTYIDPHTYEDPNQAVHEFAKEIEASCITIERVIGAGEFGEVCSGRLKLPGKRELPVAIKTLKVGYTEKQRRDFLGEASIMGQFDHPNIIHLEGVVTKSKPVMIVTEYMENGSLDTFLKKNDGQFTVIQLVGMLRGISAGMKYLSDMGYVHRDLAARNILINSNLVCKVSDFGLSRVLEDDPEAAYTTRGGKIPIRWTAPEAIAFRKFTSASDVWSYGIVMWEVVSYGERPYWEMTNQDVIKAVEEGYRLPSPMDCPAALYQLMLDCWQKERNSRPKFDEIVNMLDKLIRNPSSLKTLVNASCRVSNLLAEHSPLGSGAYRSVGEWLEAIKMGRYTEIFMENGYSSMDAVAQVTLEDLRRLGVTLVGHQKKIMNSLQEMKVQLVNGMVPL
Chain of Serine/threonine-protein kinase 32B (Homo sapiens) (Q9NY57 whole entry): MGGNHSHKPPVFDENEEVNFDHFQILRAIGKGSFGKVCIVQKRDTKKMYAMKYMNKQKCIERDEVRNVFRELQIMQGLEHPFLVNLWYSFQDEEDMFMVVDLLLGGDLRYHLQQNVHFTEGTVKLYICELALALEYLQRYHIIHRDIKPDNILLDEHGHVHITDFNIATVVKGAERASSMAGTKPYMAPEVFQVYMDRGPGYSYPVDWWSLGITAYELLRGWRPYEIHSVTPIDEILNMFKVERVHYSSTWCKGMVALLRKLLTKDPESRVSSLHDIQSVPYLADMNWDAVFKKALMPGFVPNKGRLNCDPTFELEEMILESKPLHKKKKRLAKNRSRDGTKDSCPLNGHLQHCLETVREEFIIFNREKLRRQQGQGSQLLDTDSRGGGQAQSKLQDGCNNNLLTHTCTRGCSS
Chain of Serine/threonine-protein kinase Nek9 (Homo sapiens) (Q8TD19 whole entry, the tested form may be a part): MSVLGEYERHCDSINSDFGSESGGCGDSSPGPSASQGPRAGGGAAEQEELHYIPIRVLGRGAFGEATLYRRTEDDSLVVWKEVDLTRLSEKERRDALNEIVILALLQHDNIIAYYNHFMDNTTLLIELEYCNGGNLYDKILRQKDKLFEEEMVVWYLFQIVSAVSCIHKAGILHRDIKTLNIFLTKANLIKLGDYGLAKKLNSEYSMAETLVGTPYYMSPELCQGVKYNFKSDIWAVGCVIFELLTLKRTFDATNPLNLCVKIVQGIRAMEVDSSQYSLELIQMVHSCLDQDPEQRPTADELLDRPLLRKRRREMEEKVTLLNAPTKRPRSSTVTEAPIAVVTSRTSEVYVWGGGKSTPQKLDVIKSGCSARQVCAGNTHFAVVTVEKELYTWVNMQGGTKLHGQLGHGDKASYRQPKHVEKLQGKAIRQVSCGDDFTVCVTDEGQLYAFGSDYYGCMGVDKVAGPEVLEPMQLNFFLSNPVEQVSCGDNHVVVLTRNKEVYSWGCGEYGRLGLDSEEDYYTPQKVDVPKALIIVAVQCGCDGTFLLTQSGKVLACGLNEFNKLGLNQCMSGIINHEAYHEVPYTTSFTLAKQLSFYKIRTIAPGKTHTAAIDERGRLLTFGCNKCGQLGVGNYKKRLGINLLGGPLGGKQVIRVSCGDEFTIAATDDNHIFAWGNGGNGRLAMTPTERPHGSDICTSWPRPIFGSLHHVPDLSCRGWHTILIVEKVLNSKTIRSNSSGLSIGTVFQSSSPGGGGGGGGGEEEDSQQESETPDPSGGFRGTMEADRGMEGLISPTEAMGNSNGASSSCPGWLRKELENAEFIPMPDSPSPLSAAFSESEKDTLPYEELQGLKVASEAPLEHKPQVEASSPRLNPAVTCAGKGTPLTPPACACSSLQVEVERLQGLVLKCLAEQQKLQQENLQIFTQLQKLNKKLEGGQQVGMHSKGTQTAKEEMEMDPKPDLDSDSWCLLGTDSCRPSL
Chain of Serine/threonine-protein kinase pim-1 (Homo sapiens) (P11309 whole entry, looked up): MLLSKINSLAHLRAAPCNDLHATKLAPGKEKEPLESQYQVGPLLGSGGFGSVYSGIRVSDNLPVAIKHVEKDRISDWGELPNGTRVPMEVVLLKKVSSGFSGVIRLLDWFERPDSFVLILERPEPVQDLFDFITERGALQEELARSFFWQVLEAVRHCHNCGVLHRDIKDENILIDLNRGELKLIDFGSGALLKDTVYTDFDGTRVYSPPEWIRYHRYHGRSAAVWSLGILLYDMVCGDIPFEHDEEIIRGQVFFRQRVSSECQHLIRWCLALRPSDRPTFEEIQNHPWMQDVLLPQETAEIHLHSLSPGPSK
Chain of Activin receptor type-2A (Homo sapiens) (P27037 whole entry, the tested form may be a part): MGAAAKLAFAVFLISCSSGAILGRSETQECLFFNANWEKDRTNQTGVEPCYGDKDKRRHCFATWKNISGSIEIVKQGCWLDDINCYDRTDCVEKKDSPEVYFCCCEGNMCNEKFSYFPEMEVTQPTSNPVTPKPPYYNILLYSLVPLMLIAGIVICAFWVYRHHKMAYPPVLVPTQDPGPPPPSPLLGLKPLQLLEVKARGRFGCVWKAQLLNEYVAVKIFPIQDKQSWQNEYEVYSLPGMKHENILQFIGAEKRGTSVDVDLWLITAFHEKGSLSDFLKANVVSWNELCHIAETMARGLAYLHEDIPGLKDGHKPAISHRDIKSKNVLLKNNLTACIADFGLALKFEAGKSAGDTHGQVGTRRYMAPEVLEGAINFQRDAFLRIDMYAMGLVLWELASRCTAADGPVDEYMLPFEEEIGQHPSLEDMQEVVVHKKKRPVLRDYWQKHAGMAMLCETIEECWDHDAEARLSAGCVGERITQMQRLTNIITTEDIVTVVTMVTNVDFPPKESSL

`CS(=O)(=O)c1ccc(-n2nc(-c3cnc4[nH]ccc4c3)c3c(N)ncnc32)cc1`: the inhibition in data set [1] is 0%; in data set [2] it was 27%; in data set [3], -9%; in data set [4] it was 11%; in [5], -2%; in [6] it was 5%. The inhibition in data set [7] is 5%; in data set [8], 5%; in [9] it was 30%; in data set [11], 6%; in data set [12] it was -1%; in [13], 16%. Moreover, the inhibition in data set [14] was 4%; in data set [15], 8%; in data set [16], -6%; in data set [17] it was -4%; in data set [18], -1%; in [19], -4%. The inhibition in data set [20] was 7%; in data set [21], 4%; in data set [22], -2%; in [23], 8%; in [24], -5%. The remaining at 0.5 h, 1 µM in data set [10] worked out at 79%.
